Experiment: Stability in simulated intestinal fluid
Format: physicochemical

half-life: 7.97 h
SMILES: CC[C@H]1OC(=O)[C@H](C)[C@@H](O[C@H]2C[C@@](C)(OC)[C@@H](O)[C@H](C)O2)[C@H](C)[C@@H](O[C@@H]2O[C@H](C)C[C@H](N(C)C)[C@H]2O)[C@](C)(O)C[C@@H](C)C(=O)[C@H](C)[C@@H](O)[C@]1(C)O [erythromycin]
